Measured values taken from patent publication US20210283163A1, “COMPOSITIONS AND METHODS FOR THE TREATMENT OF ACUTE AND CHRONIC PRURITIS” (Duke University, priority 2018, published 2021).

Tests used:
[1] = test system: human DRG neurons; experiment: Whole-cell patch clamp, inward currents in human DRG neurons; type: cell-based; settings: 10 μM; small diameters
Experimental: Non-diseased human DRGs were obtained from donors through National Disease Research Interchange (NDRI) with permission of exemption from the Duke University Institutional Review Board (IRB). Postmortem L3-L5 DRGs were dissected from 4 donors and delivered in ice cold culture medium to the laboratory at Duke University within 24-72 hr of the donor's death. Upon the delivery, DRGs were rapidly dissected from nerve roots and minced in a calcium-free HBSS (GIBCO). Human DRG cultures were prepared as previously reported (Chang et al., Neurosci. Bull. 2018, 34, 4-12; Han et al., Neuron 2016, 92, 1279-1293). DRGs were digested at 37° C. in a humidified CO2 incubator for 120 min with collagenase Type II (Worthington, 290 units/mg, 12 mg/mL final concentration) and dispase II (Roche, 1 unit/mg, 20 mg/mL) in PBS with 10 mM HEPES, pH adjusted to 7.4 with NaOH. DRGs were mechanically dissociated using fire-polished pipettes, filtered through a 100 μm nylon mesh and centrifuged (500 g for 5 min). The pellet was resuspended, plated on 0.5 mg/mL poly-D-lysine-coated glass coverslips, and grown in Neurobasal medium supplemented with 10% FBS, 2% B-27 supplement, and 1% penicillin/streptomycin. Whole-cell patch-clamp recordings in small (<[…]) human DRG neurons were conducted at room temperature using patch pipettes with resistances of 3-4 MΩ.
Whole-Cell Patch Clamp Recordings in HEK293 Cells, CHO Cells, and DRG Neurons. Whole-cell patch clamp recordings were performed at room temperature using an Axopatch-200B amplifier (Axon Instruments) with a Digidata 1440B (Axon Instruments). In this study, we only examined small-diameter mouse DRG neurons (<25 μM) and small-diameter human DRG neurons (<55 μM). The patch pipettes were pulled from borosilicate capillaries (World Precision Instruments) using a P-97 Flaming/Brown micropipette puller (Sutter Instrument). Pipette resistance was 4-6 MΩ for whole-cell and outside-out recording. […]

[2] = test system: naive mice; type: in vivo, mouse; settings: naive mice; 1 mM, 5 μL
Experimental: (§1) Behavioral Assessment for Scratching (Itch) and Wiping (Pain). Mice were shaved on the cheek or nape after a brief anesthesia with isoflurane. Before experiments, mice were habituated in small plastic chambers (14×18×12 cm) daily for two days. The room temperature and humidity remained stable for all the experiments. […] After the injection, the number of scratches in 60 min was counted. A scratch was counted when a mouse lifted its hind paw to scratch the shaved region and returned the paw to the floor or to the mouth. A bout of wiping was defined as a continuous wiping movement with a forepaw directing at the area of the injection area (Shimada and LaMotte, Pain 2008, 139, 681-687). Scratching and wiping behavior was videoed for 30 min or 60 min using Sony HDR-CX610 camera. The video was subsequently played back offline and the numbers of scratches and wipes were quantified in a blinded manner.

[3] = test system: mice; experiment: Acute pruritus induced by intradermal pruritogens, effect of peptides; type: in vivo, mouse; settings: peptide 2 mM, 15 μL intradermal; mmu-miR-711 1 mM, 10 μL
Experimental: as §1

[4] = target: T1, hTRPA1 (Homo sapiens, UniProt O75762); experiment: Whole-cell patch clamp, inward currents in HEK293 cells expressing hTRPA1; type: cell-based; settings: peptide 25 μM
Experimental: (§2) Cell Culture and Transfection. CD4^+ Myla cell line was cultured in RPMI 1640 media (GIBCO), supplemented with 2 mM Glutamine (GIBCO), 100 U/mL IL-2 (Sigma), 100 U/mL IL-4 (Sigma), and 10% human AB serum (Sigma). HuT 102 cell line was cultured in RPMI 1640 supplemented with pyruvate, HEPES, and 10% (v/v) fetal bovine serum (HyClone). HEK293-hTRPA1 stable cell line was cultured in MEM (GIBCO) containing 2 mM Glutamine, 4 μg/mL Blasticidin, 10% FBS (v/v). B16 and CHO cells were cultured in high glucose (4.5 g/L) Dulbecco's Modified Eagle's Medium (GIBCO) containing 10% (v/v) fetal bovine serum (GIBCO). Culture media were supplemented with 50 units/mL of penicillin and 50 μg/mL streptomycin, and cultures were maintained with 5% CO2 in 37° C. incubator. Transfection (2 μg cDNA) was performed with Lipofectamine™ 2000 Reagent (Invitrogen) at 80% confluency and the transfected cells were cultured in the same media for 48 hr before electrophysiological and biochemical studies.
Whole-Cell Patch Clamp Recordings in HEK293 Cells, CHO Cells, and DRG Neurons. Whole-cell patch clamp recordings were performed at room temperature using an Axopatch-200B amplifier (Axon Instruments) with a Digidata 1440B (Axon Instruments). In this study, we only examined small-diameter mouse DRG neurons (<25 μM) and small-diameter human DRG neurons (<55 μM). The patch pipettes were pulled from borosilicate capillaries (World Precision Instruments) using a P-97 Flaming/Brown micropipette puller (Sutter Instrument). Pipette resistance was 4-6 MΩ for whole-cell and outside-out recording. For inward current recordings in mouse and human DRG neurons, HEK293 cells, and CHO cells, the internal solution contains (in mM): 140 CsCl, 10 EGTA, 10 HEPES, and 2 Mg-ATP, adjusted to pH 7.3 with CsOH. Whole cell recordings were performed in an extracellular solution that contains (in mM): 140 NaCl, 5 KCl, 2 MgCl2, 10 HEPES, and 10 glucose, adjusted to pH 7.4 with NaOH and osmolarity to 300-310 mOsm. […] Action potential recordings were performed in small-diameter DRG neurons, with the following solutions: i) internal pipette solution contains: 126 mM K-gluconate, 10 mM NaCl, 1 mM MgCl2, 10 mM EGTA, 10 mM HEPES and 2 mM Na-ATP, adjusted to pH 7.4 with KOH and osmolarity to 295-300 mOsm), and ii) extracellular solution contains: 140 mM NaCl, 5 mM KCl, 2 mM MgCl2, 2 mM CaCl2, 10 mM HEPES, 10 mM glucose, adjusted to pH 7.4 with KOH.

[5] = target: T1, hTRPA1; experiment: RNA pull-down assay and immunoblotting; type: binding; settings: RNA pull-down
Experimental: RNA Pull-Down Assay and Immunoblotting. hTRPA1-expressing HEK293 cells of equal amount (5×10^6) were plated onto 60 mm dishes, and 24 hr later, these cells were incubated with biotin-conjugated miR-711 or miR-711 (m6) in extracellular solution containing 140 mM NaCl, 5 mM KCl, 2 mM CaCl2, 1 mM MgCl2, 10 mM HEPES, and 10 mM glucose, adjusted to pH 7.4 for 15 min at 37° C. with 5% CO2. For crosslinking, 1% formaldehyde (vol/vol) was added at 37° C. for 10 min, then 12.5% glycine was applied to stop crosslinking by 5 min incubation at room temperature. Then the cells were collected and sonicated with ultrosonic probe sonicator (80% output, 5 s on and 10 s off) in 1 mL lysis buffer (1% Triton X-100, 50 mM Tris-HCl, 150 mM NaCl, 5 mM EDTA, pH7.4) on ice for 2 min. We then centrifuged the lysate at 13,000 rpm for 10 min at 4° C. and took 50 μL supernatant as lysate control. The remaining supernatant was added 20 μL streptadvilin agrose beads and incubated overnight. The pellets were collected after centrifuge at 6000 rmp for 30 s. For competing assay, miR-711 (10-50 μM) or mutant miR-711 (m6, 10-50 μM) were added 15 min before the incubation with biotin-conjugated miR-711 (10 μM). For immunoblotting, the lysates or beads were incubated in SDS-PAGE loading buffer for 30 min at 50° C., and supernatant was collected after centrifugation at 13000 rpm and decrosslink at 99° C. for 20 min. The samples were separated on an SDS-PAGE gel, transferred, and probed with TRPA1 antibody (1:1000; Alomone labs). The immunoreactive bands were detected with horseradish peroxidase-conjugated secondary antibody, visualized with enhanced chemiluminescence (Thermo scientific, Pittsburgh, Pa.), and quantified with Image-Pro Plus software (Media Cybernetics, Bethesda, Md.). Each experiment was repeated at least three times.

[6] = target: T2, TRPV4 (Mus musculus, UniProt Q9EPK8); experiment: Whole-cell patch clamp in CHO cells transfected with mouse Trpv4 cDNA; type: cell-based; settings: miR-711 10 μM; GSK1016790A 1 μM
T2 construct: expressed in transfected cells; host or cells: CHO cells (ATCC CRL-9096), plasmid pcDNA3.1-mTrpv4, a gift from Korea University
Experimental: Constructs. The cDNAs of mouse pcDNA3.1-Trpa1, pcDNA3.1-Trpv1, pcDNA3.1-Trpv2, pcDNA3.1-Trpv3, and pcDNA3.1-Trpv4 were kindly provided Dr. Sun Work Hwang from Korea University. Mouse Trpa1 cDNA was subcloned into pCGN-HA backbone (Addgene) using In-Fusion HD Cloning Kit (Clontech Laboratories, CA). Q5 Site-Directed Mutagenesis Kit was used to generate mTrpa1 mutant (M1-M13) based on pCGN-mTrpa1.
as §2, with “studies. […]” for “studies.”

[7] = test system: mice; experiment: Persistent itch after intradermal adenovirus (AV) overexpression of hsa-miR-711; type: in vivo, mouse; settings: 10 days after the AV injection, A-967079 50 μM, hsa-miR-711 inhibitor 100 μM, blocking peptide 2 μM
Experimental: as §1
miRNA Measurement by Quantitative Real-Time RT-PCR (qPCR). Total RNA was isolated from serum of CTCL mice or adenovirus-treated mice using Qiazol Lysis Reagent (QIAGEN) together with miRNeasy Serum/Plasma Kit (Park et al., Neuron 2014, 82, 47-54). All RNA samples were immediately used or kept at −80° C. until further processing. To convert mature miRNA into cDNA, 6 μl of total RNA solution were reverse transcribed using the miScript II RT Kit (including polyadenylation of miRNAs and reverse transcription using an oligo-dT that binds to a universal RT-sequence). Specific miRNA levels were quantified by qPCR using miScript SYBR Green Kit including miScript miRNA assay for hsa-miR-711, hsa-miR21, hsamiR155, and hsa-miR-326, together with the universal RT primer, according to the manufacturer's protocol (CFX96 Real-Time system, Bio-Rad). Relative quantities of miRNAs were calculated using the Ct value after normalization to control miRNAs. Caenorhabditis elegans miRNA-39 (cel-miRNA-39) was included as spiked-in control for extracellular miRNA.

[8] = test system: CTCL mice; experiment: Mouse CTCL xenograft model of chronic itch; type: in vivo; settings: given 20 days after Myla cell inoculation; hsa-miR-711 inhibitor 100 μM, HC030031 200 μM, A967079 50 μM, peptides 2 mM
Experimental: Mouse CTCL Xenograft Model of Chronic Itch. We developed a murine xenograft model of cutaneous T cell lymphoma (CTCL) using immune-deficient mice (NOD.CB17-Prkdcscid, 8-10 weeks old, male). CD4^+ MyLa cell line was purchased from Sigma (Ca #95051032). The cell line was established from a plaque biopsy of a person with mycosis fungoides stage II by inclusion of IL-2 and IL-4 in the culture medium. CTCL was generated via intradermal injection of CD4^+ Myla cells (1×10^5 cells/μl, 100 μL) on the nape of the neck. Tumor growth was assessed for 40 days by measurements of tumor diameters.
as §1
Generation of Myla Stable Cell Line Expressing miR-711 Inhibitor. CD4^+ Myla cells were plated at a density of 2×10^5 cells/mL in 2 mL culture media in 6-well plates. For each well, 20 μL of the MISSION Lenti microRNA Inhibitor (hsa-miR-711) lentivirus (Sigma) with a titer of 2.6×10^7 Tu/mL were added. Cell mixtures were incubated at 37° C. for 48 hr, washed with PBS three times, and re-suspended in fresh culture media, and 24 hr later, 1 μg/mL puromycin was added to the cells to select stably transduced cell populations. We tried to grow and passage the cells as much as necessary (usually 3 days) and maintained selection pressure by keeping 1 μg/mL puromycin in the medium. After 4 weeks, a large number of the cells were killed; the remaining cells retained the expression of the plasmid, which stably integrates into the genome of the targeted cells. These cells were used for inoculation to generate the CTCL model for testing the effects of miR-711 inhibitor on chronic itch and tumor growth.

T1 sequence (O75762 whole entry): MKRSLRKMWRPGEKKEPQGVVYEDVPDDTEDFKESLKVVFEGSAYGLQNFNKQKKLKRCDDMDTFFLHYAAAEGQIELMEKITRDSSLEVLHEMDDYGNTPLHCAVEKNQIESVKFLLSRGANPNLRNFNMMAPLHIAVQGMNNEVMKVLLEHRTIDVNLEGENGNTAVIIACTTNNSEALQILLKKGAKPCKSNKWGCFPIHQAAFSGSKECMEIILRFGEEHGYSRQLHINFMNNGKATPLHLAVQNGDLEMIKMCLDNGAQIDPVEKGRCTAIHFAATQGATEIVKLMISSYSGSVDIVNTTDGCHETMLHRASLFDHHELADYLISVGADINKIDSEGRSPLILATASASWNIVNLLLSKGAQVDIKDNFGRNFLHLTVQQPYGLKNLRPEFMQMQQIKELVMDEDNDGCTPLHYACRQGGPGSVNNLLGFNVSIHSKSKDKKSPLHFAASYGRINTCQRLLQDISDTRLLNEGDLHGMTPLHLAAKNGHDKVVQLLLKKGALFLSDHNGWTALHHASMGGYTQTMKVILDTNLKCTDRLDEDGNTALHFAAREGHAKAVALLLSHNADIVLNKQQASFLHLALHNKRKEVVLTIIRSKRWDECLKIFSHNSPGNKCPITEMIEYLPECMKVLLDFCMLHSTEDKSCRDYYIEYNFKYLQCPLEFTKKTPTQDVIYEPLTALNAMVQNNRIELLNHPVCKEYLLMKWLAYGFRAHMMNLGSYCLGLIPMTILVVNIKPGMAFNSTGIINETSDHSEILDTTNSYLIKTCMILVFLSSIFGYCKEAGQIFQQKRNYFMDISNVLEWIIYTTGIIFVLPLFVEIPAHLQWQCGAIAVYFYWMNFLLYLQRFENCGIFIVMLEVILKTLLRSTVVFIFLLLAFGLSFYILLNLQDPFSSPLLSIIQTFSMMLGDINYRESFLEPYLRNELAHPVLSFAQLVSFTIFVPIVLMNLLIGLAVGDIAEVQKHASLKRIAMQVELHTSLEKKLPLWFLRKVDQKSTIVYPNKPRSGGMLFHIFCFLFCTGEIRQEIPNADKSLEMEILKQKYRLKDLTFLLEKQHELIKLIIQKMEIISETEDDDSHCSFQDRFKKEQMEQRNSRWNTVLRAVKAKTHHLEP
T2 sequence (Q9EPK8 whole entry): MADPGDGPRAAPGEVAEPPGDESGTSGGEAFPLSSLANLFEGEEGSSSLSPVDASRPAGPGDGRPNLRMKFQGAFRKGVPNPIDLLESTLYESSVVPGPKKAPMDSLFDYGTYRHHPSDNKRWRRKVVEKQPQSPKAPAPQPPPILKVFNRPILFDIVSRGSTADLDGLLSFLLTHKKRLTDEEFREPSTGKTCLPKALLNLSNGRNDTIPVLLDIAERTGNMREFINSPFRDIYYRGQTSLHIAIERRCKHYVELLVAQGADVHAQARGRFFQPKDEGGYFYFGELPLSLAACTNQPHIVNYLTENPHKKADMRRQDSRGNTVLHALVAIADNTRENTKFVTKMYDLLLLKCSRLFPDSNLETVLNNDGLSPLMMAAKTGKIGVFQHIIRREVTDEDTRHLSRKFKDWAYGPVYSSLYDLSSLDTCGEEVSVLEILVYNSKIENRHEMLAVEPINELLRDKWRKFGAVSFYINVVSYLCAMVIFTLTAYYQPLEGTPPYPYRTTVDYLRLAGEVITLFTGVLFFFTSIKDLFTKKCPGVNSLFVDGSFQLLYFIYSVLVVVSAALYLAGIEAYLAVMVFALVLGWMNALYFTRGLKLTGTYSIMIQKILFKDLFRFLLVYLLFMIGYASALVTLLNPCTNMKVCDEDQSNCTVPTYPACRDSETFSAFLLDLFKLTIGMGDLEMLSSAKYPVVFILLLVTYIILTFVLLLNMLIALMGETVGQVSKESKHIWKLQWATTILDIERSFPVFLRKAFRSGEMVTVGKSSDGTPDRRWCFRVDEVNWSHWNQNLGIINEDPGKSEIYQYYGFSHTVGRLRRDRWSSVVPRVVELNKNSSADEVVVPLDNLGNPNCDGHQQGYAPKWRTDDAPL

Compound	inward currents in human DRG neurons [1]	scratching (itch) after intradermal cheek injection [2]	wiping (pain) after intradermal cheek injection [2]	also measured
hsa-miR-642b-3p: hsa-miR-642b-3p: agacacauuuggagagggaccc (SEQ ID NO: 10) (AGACACAUUUGGAGAGGGACCC; listed as RNA, chemistry not given here)	induced similar inward currents	resulted in pruritus	failed to elicit wiping	
NH2-FRNELAAAVATFGQL-COOH (H-FRNELAAAVATFGQL-OH) [mutated peptide]				effect on miR-711-induced pruritus [3]: nor did this peptide inhibit; inhibition of miR-711-induced TRPA1 inward currents [4]: nor did this peptide inhibit; disruption of the miR-711/TRPA1 interaction [5]: Neither did this mutated peptide block
hsa-miR-711: hsa-miR-711: gggacccagggagagagacguaag (SEQ ID NO: 9) (GGGACCCAGGGAGAGAGACGUAAG; listed as RNA, chemistry not given here)	evoked TRPA1-dependent inward currents	able to evoke pruritus	failed to elicit wiping	
CC(C)C[C@H](NC(=O)c1cc2ccccc2s1)C(=O)N1CCN(C(=O)[C@H](CO)NS(=O)(=O)c2ccc(Cl)cc2Cl)CC1 [GSK1016790A]				inward currents [6]: inward currents induced
miR-711 inhibitor: hsa-miR-711 inhibitor with a complementary sequence to hsa-miR-711: cuuacgucucucccuggguccc (SEQ ID NO: 22) (CUUACGUCUCUCCCUGGGUCCC; listed as RNA, chemistry not given here)				effect on hsa-miR-711 AV-induced persistent itch [7]: Inhibition; effect on CTCL-evoked chronic itch [8]: reduced chronic pruritus
